Source: PubChem BioAssay (NCI)
“And” between values parts separate entries of the source, which are not always exact repeats. Equal values may be shown once.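 Exposure lasted 48 hours, with cells grown in 96-well plates and compounds tested at five concentrations. GI50 marks 50% less growth. The concentration for full growth arrest is given as TGI.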

system: SK-MEL-2 melanoma; assay: DTP human tumour cell line panel, 48 h

| SMILES | GI50 | TGI |
| --- | --- | --- |
| CCOC(=O)c1c2c(n(Cc3ccc(Cl)cc3Cl)c1C)-c1nc[nH]c1C(=O)C2=O | 19.5 µM | 41.2 µM |
| COc1cccc2c1C(=O)c1c(O)c3c(c(O)c1C2=O)CC(O)(C(O)CO)CC3OC1CC(N2CCOCC2)C(O)C(C)O1 (configuration not stated) | – | 0.0117 µM |
| O=C(O)C1OC1(c1cccc(Cl)c1)c1ccccc1Cl (configuration not stated) | – | 31.2 µM |
| CCCCC[C@H]1C/C=C2/C(=O)C=C[C@@H]2C/C=C\CCCC(=O)O[C@@H](CCCCC)C/C=C2/C(=O)C=C[C@@H]2C/C=C\CCCC(=O)O1 | 0.385 µM | 1.22 µM |
| COC1/C=C/C(C)C(C(C)C(OC)C(C)CCC(=O)C(C)C(C/C=C/N(C)C=O)OC)OC(=O)/C=C/C=C(\C)CC(OC)CC2=CC(=O)O[C@H](C2)C(C)C(OC)CC(OC)/C=C/C(C)C(OC)C1 (some centres not stated) | – | 0.0399 µM |
| Cc1cc(C(=C2C=CC(=Nc3ccccc3)C=C2)c2ccc(Nc3ccccc3)cc2)ccc1N | 0.216 µM | 0.529 µM |
| CNCCCn1c2c(c3ccc([N+](=O)[O-])cc3c1=O)C(=O)c1cc(OC)cnc1-2 | 0.348 µM | 0.994 µM |
| C#CC1(O)C(COP(=O)(O)OC(COCCCCCCCCCCCCCCCCCC)COP(=O)(O)OCC2OC(n3cc(F)c(=O)[nH]c3=O)CC2O)OC(n2ccc(N)nc2=O)C1O (configuration not stated) | < 0.049 µM and 0.432 µM | 1.88 µM and 3.48 µM |
| Cc1cc(Cl)ccc1Nc1nc(C(F)(F)F)ccc1C(=O)N/N=C/c1ccc(Cl)cc1 | 2.18 µM | 9.2 µM |
| COc1cc2oc3cc(=O)cc4oc(-c5ccccc5)cc(c2c2c1CCC(c1ccccc1)O2)c43 (configuration not stated) | – | > 100 µM |
| c1cc2n(n1)CCN2 | – | > 7500 µM |
| COc1cc(Nc2c(C#N)cnc3cc(OCCCN4CCN(C)CC4)c(OC)cc23)c(Cl)cc1Cl | 2.97 µM | 8.67 µM |
| O=CN/C=C/c1cccc(O)c1 | – | > 81.6 µM |
| Nc1ccc2c(SCc3ccc([N+](=O)[O-])cc3)c3ccccc3nc2c1 | – | 32.4 µM |
| COC1=CC(c2ccc[nH]2)=N/C1=C\c1[nH]c(C)c(C(=O)CCCCC(=O)NC(C)(C)C)c1C | 17.7 µM | 42.5 µM |
| O=c1ccn(C2CC(O)C(CO)O2)c(=O)[nH]1 (configuration not stated) | > 5000 µM | > 5000 µM |
| O=C(N/C(=C/c1ccc(Cl)cc1Cl)c1nc2ccccc2s1)c1ccccc1 | – | 36.1 µM |
| CCOC(=O)c1cc2c(n1Cc1cccc(OC)c1)-c1oncc1CCC2 | 0.535 µM | 14.9 µM |
| COc1c(O)cc2oc(-c3ccc(O)cc3)cc(=O)c2c1O | – | > 100 µM |
| O=c1cc(-c2ccccc2F)[nH]c2ccc(N3CCCC3)cc12 | – | > 100 µM |
| c1csc(-c2cn3nc(-c4c[nH]c5ccccc45)sc3n2)c1 | 1.08 µM | 23.8 µM |
| COc1cc2ccccc2oc1=O | – | > 100 µM |
| O=C1c2cccc(NCCN=Cc3cc([N+](=O)[O-])ccc3O)c2C(=O)c2c(NCCN=Cc3cc([N+](=O)[O-])ccc3O)cccc21 | 20.5 µM | 96.4 µM |
| COc1ccc2c(=O)cc(-c3ccncc3)oc2c1OC | – | 68.2 µM |
| O=C(O)c1cc2ccc3ccccc3c2oc1=O | – | > 100 µM |
| COC(=O)[C@@]12OC[C@]34[C@H]([C@@H](O)[C@@H]1O)[C@@]1(C)[C@H](O)C(=O)C=C(C)[C@@H]1C[C@H]3OC(=O)C(OC(C)=O)[C@@H]24 (some centres not stated) | 0.0574 µM | 0.319 µM |

system: SF-539 CNS; assay: DTP human tumour cell line panel, 48 h

| SMILES | GI50 [µM] | TGI |
| --- | --- | --- |
| C[C@]12CCc3sc(NCCc4ccccc4)nc3C1=CC[C@@H]1[C@@H]2CC[C@]2(C)C(=O)CC[C@@H]12 | 1.69 | 3.62 µM |
| CCN(Cc1ccc(F)cc1)c1ccc(CO)c(F)c1 | 18.8 | 56.5 µM |
| c1ccc(CN2CCC3(CC2)SSC2(CCN(Cc4ccccc4)CC2)S3)cc1 | – | > 100 µM |
| O=C(Cn1c(=O)c(-c2ccccc2)nc2ccccc21)Nc1ccc(F)cc1 | 4.03 | 28.7 µM |
| CCOC(=O)c1c2c(n(Cc3ccc(Cl)cc3Cl)c1C)-c1nc[nH]c1C(=O)C2=O | 4.4 | 16.4 µM |
| COc1cccc2c1C(=O)c1c(O)c3c(c(O)c1C2=O)CC(O)(C(O)CO)CC3OC1CC(N2CCOCC2)C(O)C(C)O1 (configuration not stated) | 0.0187 | 0.014 µM and 0.0744 µM |
| O=C(O)C1OC1(c1cccc(Cl)c1)c1ccccc1Cl (configuration not stated) | – | 43.7 µM |
| CCCCC[C@H]1C/C=C2/C(=O)C=C[C@@H]2C/C=C\CCCC(=O)O[C@@H](CCCCC)C/C=C2/C(=O)C=C[C@@H]2C/C=C\CCCC(=O)O1 | 0.423 | 1.09 µM |
| Cc1cc(C(=C2C=CC(=Nc3ccccc3)C=C2)c2ccc(Nc3ccccc3)cc2)ccc1N | 0.328 | 1.16 µM |
| CNCCCn1c2c(c3ccc([N+](=O)[O-])cc3c1=O)C(=O)c1cc(OC)cnc1-2 | 0.0505 | 0.567 µM |
